Source: patent US8871280B1, “Compositions and methods for treating fungal activity in plants or soil” (The United States of America, as represented by the …, priority 2011, dated 2014)

Legend:
Rhizoctonia solani [1] = assay: Poison food technique (contact action), mycelial growth inhibition in PDA; type: cell-based, Rhizoctonia solani AG-4, isolate Rs 23A; details: for PoisonB1 % inhibition: poison bed experiment 1; for PoisonB2 % inhibition: poison bed experiment 2
Procedure: (§1) Fungal isolate and preparation of inoculum: Rhizoctonia solani AG-4, isolate Rs 23A is a highly virulent pathogenic isolate which infects many vegetables, ornamentals and turfgrasses (Lewis, J. A., and G. C. Papavizas, Soil Biology and Biochemistry, 9:195-201 (1987)). The fungus was grown in potato dextrose agar (PDA) plates and fungal plugs from the freshly growing mycelium were mixed with moist sterilized cracked wheat in a 2 L flask for 15 days in dark at 22° C. (Lakshman, D. K., et al., Proceedings of the National Academy of Science, USA, 95: 6425-6429 (1998)). The infested wheat was air dried in a sterile hood for 3 days, blended in a homogenizer and sieved through a mesh and stored at 2° C. before soil inoculation. A dose response of the inocula was carried out by thoroughly mixing using 0.25, 0.5, 0.75, 1.0, 1.25 and 1.50 g inoculums per Kg dry weight potting soil plus sterile water to maintain 25-30% moisture and incubating at room temperature for two weeks before sowing cucumber (cv muncher) seeds with the infested soil. The percent germination and post-emergence damping off of cucumber seedlings were recorded. The lowest inoculums dose that induced 100% postemergence damping off was estimated to be 1 to 1.25 g/Kg soil for inocula prepared over the span of the experiments. For soil fumigation with plant extracts (PEs), each time the minimum inoculum dose giving rise to 100% damping off was used.
In vitro bioassays: Two in vitro bioassay methods were used to investigate the mycelial growth inhibitory potentials of PEs. In the poison food technique, test chemical/plant extract was mixed at concentrations of 15, 30, 45, 60, 75, and 150 μl per 20 ml autoclaved PDA at 50° C., poured on three sterile disposable plastic plates (100×15 mm, Fisherbrand) at 20 ml/plate and cooled to room temperature to solidify (Dhingra, O.D., and J. B. Sinclair, 1995, Basic Plant Pathology Methods, 2nd Edition, Lewis Publishers, Boca Raton and London). […] Each plate was seeded in the center with a 5 mm diameter agar disk of the freshly grown Rhizoctonia pathogen, mycelial side facing the medium, and sealed with stretched Parafilm® M (Fisher Scientific). The plates were incubated in the dark at room temperature and when the pathogen reached to the edge of the plates in the control treatment (soybean oil), radial measurement of fungal growth in plates treated with PEs were recorded by taking three measurements from each plate. The experiment was repeated one more time. The percent mycelial growth inhibition (MGI) due to PE was calculated using the following formula: […] where dc=Avg. radial growth in mm of pathogen in control plate; dt=avg. radial growth in mm of pathogen in treated plate.

Rhizoctonia solani [2] = assay: Filter disk fumigation method, mycelial growth inhibition on PDA; type: cell-based, Rhizoctonia solani AG-4, isolate Rs 23A; details: for Fumig1 % inhibition: fumigation experiment 1; for Fumig2 % inhibition: fumigation experiment 2
Procedure: as §1
In the second protocol, the chemical was kept not in direct contact with the fungus and we hypothesized that the plant extract will most likely influence the growth of the pathogen by fumigation action. In this approach, three sterile 15 mm filter paper (Whatman International Ltd, Maidstone, UK) disks were placed on the edge of each of three plates on the PDA. Each disk was impregnated in the center with various amounts (5-50 ul/disk) of the test solution/suspension. For negative control, only soybean oil was placed in the filter disk. […] The average radial growth was calculated and the experiment was repeated one more time. Percent growth inhibition was calculated as reported for poison bed assay.

Rhizoctonia solani [3] = assay: Fungicidal vs fungistatic potential (regrowth of mycelial plugs on fresh PDA, 7 days); type: cell-based, Rhizoctonia solani AG-4, isolate Rs 23A
Procedure: The fungicidal and fungistatic potential of the PEs were determined by the method described by Garber and Houstan (Garber R. H., and B. R. Houston, Phytopathology, 49: 449-450 (1959)). In brief, three 5 mm diameter plugs were taken from the peripheral mycelial growth from each plate and placed in a fresh PDA plate. Following incubation at room temperature for 7 days, observations were recorded for new mycelial growth (fungistatic) or no mycelial growth (fungicidal). As control, peripheral mycelial plugs from soybean oil amended PDA plates were checked for fresh mycelial growth in fresh PDA plates.

cucumber seeds = assay: Greenhouse assay of seed germination and phytotoxicity, soil treated with plant extract alone; details: for % Seed germination (+ PE only) / Avg. seed germination (+ PE only): cucumber
Procedure: Soil treatment: For each treatment, 300 g of dry greenhouse soli (Pro-mix, Premier Horticulture LTD, Red Hill, Pa.) was thoroughly mixed with Rhizoctonia inoculum and incubated for 15 days as described above. […] The infested soil treated with only the carrier solution served as an untreated control. Following the treatment, the soil was thoroughly stirred to mix the contents and incubated in a double polythene bag closed tightly in the dark at room temperature for four days for fumigation to occur. Following the incubation, the bag was opened to allow as much PE to dissipate as possible. This was done by sprinkling the surface soil with sterile water every other day, and stirring the soil once every day for seven days. For assay of effect on seed germination and phytotoxicity of the plant extracts, soil was treated with plant extract formulations alone.
Greenhouse studies: Treated soil from each treatment was distributed to 4-inch plastic pots into which 12 seeds of cucumbers (95-100% germination) were sown and lightly watered to keep soil moist. The treatments were color coded and pots were randomized across treatment. All plants were kept in a greenhouse between 20° C. (night) to 26° C. (day) with 14 h of light. There were three pots per treatment in each experiment, and the experiment was repeated three times. As positive control, a broad spectrum popular soil fungicide Banrot® 40 WP (The Scotts Company, Ohio) was used following manufacturer's recommendation to control the disease. Total number of seedlings without any sign of damping off in each pot was recorded and percentage of disease suppression were calculated four weeks after sowing cucumber seeds.

Rhizoctonia solani [4] = assay: Greenhouse suppression of damping off of cucumber seedlings in R. solani infested soil amended with plant extract; type: in vivo, Rhizoctonia solani AG-4, isolate Rs 23A; details: for % Disease suppression (+ PE + R. solani): cucumber damping off, soil amendment at 0.3% (v/w), four weeks after sowing
[5] = in vivo, 0.3 % of PE in soil (3000 ppm)
[6] = 12 seeds sown per pot, soil amended with 0.3% PE, no pathogen
[7] = soil amended with 0.3% PE, no pathogen

## CC=Cc1ccc(OC)cc1 [Anethole]
Rhizoctonia solani [1]; amount oil 15 μL/20 mL plate
  PoisonB1 % inhibition: 100%
  PoisonB2 % inhibition: 100%
Rhizoctonia solani [1]; amount oil 30 μL/20 mL plate
  PoisonB1 % inhibition: 100%
  PoisonB2 % inhibition: 100%
Rhizoctonia solani [1]; amount oil 45 μL/20 mL plate
  PoisonB1 % inhibition: 100%
  PoisonB2 % inhibition: 100%
Rhizoctonia solani [1]; amount oil 60 μL/20 mL plate
  PoisonB1 % inhibition: 100%
  PoisonB2 % inhibition: 100%
Rhizoctonia solani [1]; amount oil 75 μL/20 mL plate
  PoisonB1 % inhibition: 100%
  PoisonB2 % inhibition: 100%
Rhizoctonia solani [1]; amount oil 150 μL/20 mL plate
  PoisonB1 % inhibition: 100%
  PoisonB2 % inhibition: 100%
Rhizoctonia solani [1]; in vitro, PDA
  Inhibition of R. solani growth by contact (poison bed assay), in words: potent inhibitors
Rhizoctonia solani [2]; amount oil 15 μL/20 mL plate
  Fumig1 % inhibition: 99%
  Fumig2 % inhibition: 90%
Rhizoctonia solani [2]; amount oil 30 μL/20 mL plate
  Fumig2 % inhibition: 85%
Rhizoctonia solani [2]; amount oil 45 μL/20 mL plate
  Fumig2 % inhibition: 86%
Rhizoctonia solani [2]; amount oil 60 μL/20 mL plate
  Fumig2 % inhibition: 89%
Rhizoctonia solani [2]; amount oil 75 μL/20 mL plate
  Fumig2 % inhibition: 97%
Rhizoctonia solani [2]; amount oil 150 μL/20 mL plate
  Fumig2 % inhibition: 102%
Rhizoctonia solani [2]; in vitro, filter disk
  Inhibition of R. solani growth by fumigation action, in words: potent inhibitors
Rhizoctonia solani [3]; amount oil 15 μL/20 mL plate
  Effect (fumigation): S
  Effect (poison bed, contact action): S
Rhizoctonia solani [3]; amount oil 30 μL/20 mL plate
  Effect (fumigation): S
  Effect (poison bed, contact action): S
Rhizoctonia solani [3]; amount oil 45 μL/20 mL plate
  Effect (fumigation): S
Rhizoctonia solani [3]; amount oil 60 μL/20 mL plate
  Effect (fumigation): S
Rhizoctonia solani [3]; amount oil 75 μL/20 mL plate
  Effect (fumigation): S
Rhizoctonia solani [3]; amount oil 150 μL/20 mL plate
  Effect (fumigation): S
Rhizoctonia solani [3]; in vitro, higher concentrations
  Fungicidal vs fungistatic nature at higher concentrations: fungicidal
Cucumber seeds; [5]
  % Seed germination (+ PE only): 75.00%
  Avg. seed germination (+ PE only): 9.00
Rhizoctonia solani [4]
  % Disease suppression (+ PE + R. solani): 58.33%
Rhizoctonia solani [4]; cucumber, 12 seeds sown per pot, infested soil amended with 0.3% PE
  Avg. seed Germination (+ PE + R. solani): 7.00

## Cc1ccc(C(C)C)cc1O [Carvacrol]
Rhizoctonia solani [1]; amount oil 15 μL/20 mL plate
  PoisonB1 % inhibition: 100%
  PoisonB2 % inhibition: 100%
Rhizoctonia solani [1]; amount oil 30 μL/20 mL plate
  PoisonB1 % inhibition: 100%
  PoisonB2 % inhibition: 100%
Rhizoctonia solani [1]; amount oil 45 μL/20 mL plate
  PoisonB1 % inhibition: 100%
  PoisonB2 % inhibition: 100%
Rhizoctonia solani [1]; amount oil 60 μL/20 mL plate
  PoisonB1 % inhibition: 100%
  PoisonB2 % inhibition: 100%
Rhizoctonia solani [1]; amount oil 75 μL/20 mL plate
  PoisonB1 % inhibition: 100%
  PoisonB2 % inhibition: 100%
Rhizoctonia solani [1]; amount oil 150 μL/20 mL plate
  PoisonB1 % inhibition: 100%
  PoisonB2 % inhibition: 100%
Rhizoctonia solani [2]; amount oil 15 μL/20 mL plate
  Fumig1 % inhibition: 88%
  Fumig2 % inhibition: 87%
Rhizoctonia solani [2]; amount oil 30 μL/20 mL plate
  Fumig1 % inhibition: 94%
  Fumig2 % inhibition: 91%
Rhizoctonia solani [2]; amount oil 45 μL/20 mL plate
  Fumig1 % inhibition: 100%
  Fumig2 % inhibition: 91%
Rhizoctonia solani [2]; amount oil 60 μL/20 mL plate
  Fumig1 % inhibition: 100%
  Fumig2 % inhibition: 93%
Rhizoctonia solani [2]; amount oil 75 μL/20 mL plate
  Fumig1 % inhibition: 99%
  Fumig2 % inhibition: 96%
Rhizoctonia solani [2]; amount oil 150 μL/20 mL plate
  Fumig1 % inhibition: 100%
  Fumig2 % inhibition: 100%
Rhizoctonia solani [3]; amount oil 15 μL/20 mL plate
  Effect (fumigation): S
Rhizoctonia solani [3]; amount oil 30 μL/20 mL plate
  Effect (fumigation): S
Rhizoctonia solani [3]; amount oil 45 μL/20 mL plate
  Effect (fumigation): S
Rhizoctonia solani [3]; amount oil 60 μL/20 mL plate
  Effect (fumigation): S
Rhizoctonia solani [3]; amount oil 75 μL/20 mL plate
  Effect (fumigation): S
Rhizoctonia solani [3]; amount oil 150 μL/20 mL plate
  Effect (fumigation): S
Cucumber seeds; [6]
  Avg. seed germination (+ PE only): 4.00
Cucumber seeds; [7]
  % Seed germination (+ PE only): 33.33%
Cucumber seeds; greenhouse, soil amendment
  Phytotoxicity (cucumber seed germination and seedling growth), in words: slightly inhibited
Rhizoctonia solani [4]
  % Disease suppression (+ PE + R. solani): 47.25%

## CC(C)=CCC/C(C)=C/CO [Geraniol]
Rhizoctonia solani [1]; amount oil 15 μL/20 mL plate
  PoisonB1 % inhibition: 100%
  PoisonB2 % inhibition: 100%
Rhizoctonia solani [1]; amount oil 30 μL/20 mL plate
  PoisonB1 % inhibition: 100%
  PoisonB2 % inhibition: 100%
Rhizoctonia solani [1]; amount oil 45 μL/20 mL plate
  PoisonB1 % inhibition: 100%
  PoisonB2 % inhibition: 100%
Rhizoctonia solani [1]; amount oil 60 μL/20 mL plate
  PoisonB1 % inhibition: 100%
  PoisonB2 % inhibition: 100%
Rhizoctonia solani [1]; amount oil 75 μL/20 mL plate
  PoisonB1 % inhibition: 100%
  PoisonB2 % inhibition: 100%
Rhizoctonia solani [1]; amount oil 150 μL/20 mL plate
  PoisonB1 % inhibition: 100%
  PoisonB2 % inhibition: 100%
Rhizoctonia solani [2]; amount oil 15 μL/20 mL plate
  Fumig1 % inhibition: 51%
  Fumig2 % inhibition: 15%
Rhizoctonia solani [2]; amount oil 30 μL/20 mL plate
  Fumig1 % inhibition: 56%
  Fumig2 % inhibition: 34%
Rhizoctonia solani [2]; amount oil 45 μL/20 mL plate
  Fumig1 % inhibition: 62%
  Fumig2 % inhibition: 31%
Rhizoctonia solani [2]; amount oil 60 μL/20 mL plate
  Fumig1 % inhibition: 66%
  Fumig2 % inhibition: 54%
Rhizoctonia solani [2]; amount oil 75 μL/20 mL plate
  Fumig1 % inhibition: 73%
  Fumig2 % inhibition: 67%
Rhizoctonia solani [2]; amount oil 150 μL/20 mL plate
  Fumig1 % inhibition: 77%
  Fumig2 % inhibition: 61%
Rhizoctonia solani [3]; amount oil 15 μL/20 mL plate
  Effect (fumigation): S
Rhizoctonia solani [3]; amount oil 30 μL/20 mL plate
  Effect (fumigation): S
Rhizoctonia solani [3]; amount oil 45 μL/20 mL plate
  Effect (fumigation): S
Rhizoctonia solani [3]; amount oil 60 μL/20 mL plate
  Effect (fumigation): S
Rhizoctonia solani [3]; amount oil 75 μL/20 mL plate
  Effect (fumigation): S
Rhizoctonia solani [3]; amount oil 150 μL/20 mL plate
  Effect (fumigation): S
Cucumber seeds; [6]
  Avg. seed germination (+ PE only): 11.33
Cucumber seeds; [7]
  % Seed germination (+ PE only): 94.41%
Rhizoctonia solani [4]
  % Disease suppression (+ PE + R. solani): 77.75%
